Measured values published in PubChem BioAssay (NCI).
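Protocol summary: plate cells (96-well), add compound at 5 concentrations, incubate 48 h, interpolate endpoints linearly. TGI: total growth inhibition.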

Tests used:
Test in all cases: NCI tumour cell line growth inhibition, 48 h
T-47D breast = tested on: T-47D breast
SR leukemia = tested on: SR leukemia
NCI-H23 lung = tested on: NCI-H23 lung
DU-145 prostate = tested on: DU-145 prostate
SW-620 colon = tested on: SW-620 colon
M14 melanoma = tested on: M14 melanoma
OVCAR-4 ovarian = tested on: OVCAR-4 ovarian
HOP-62 NSCLC = tested on: HOP-62 NSCLC
SK-MEL-5 melanoma = tested on: SK-MEL-5 melanoma
RPMI-8226 leukemia = tested on: RPMI-8226 leukemia

Compound	TGI (T-47D breast) [µM]	TGI (SR leukemia) [µM]	TGI (NCI-H23 lung) [µM]	TGI (DU-145 prostate) [µM]	TGI (SW-620 colon) [µM]	TGI (M14 melanoma) [µM]	TGI (OVCAR-4 ovarian) [µM]	TGI (HOP-62 NSCLC) [µM]	TGI (SK-MEL-5 melanoma) [µM]	TGI (RPMI-8226 leukemia) [µM]
Cc1ccc(C)c(COCCOCn2cc(N3CCOCC3)c(=O)[nH]c2=O)c1	> 100	> 100	> 100	> 100	> 100	> 100	–	–	–	–
CC(C)(C)c1ccnc(N=C2N=C(Nc3cc(C(C)(C)C)ccn3)c3ccccc32)c1	–	> 100	94.6	–	> 100	> 100	> 100	75.5	–	–
CC1(C)OCC(C2OC(C)(C)OC2[C@H]2O[C@@]3(O)[C@H]4[C@H](C=CC[C@@H]42)[C@@H](OCc2ccccc2)[C@H](OCc2ccccc2)[C@H]3OCc2ccccc2)O1 (some centres not stated)	> 100	31.4	> 100	> 100	> 100	> 100	> 100	> 100	> 100	–
CC(C)(C)N=NC(C)(C)N=C=O	–	> 100	> 100	–	> 100	> 100	> 100	> 100	> 100	> 100
CC(=O)Oc1ccn2nc(C)c(Br)c2c1	> 100	> 100	> 100	> 100	> 100	> 100	> 100	> 100	> 100	–
C=C1[C@@H]2CCC3[C@]4(C)C(CC[C@@]5(C)C(=O)O[C@H](O)[C@@H]45)[C@H](O)[C@]3(C2)[C@H]1OC1OC(CO)C(O)C(O)C1O (some centres not stated)	> 50	–	> 50	> 50	> 50	> 50	> 50	> 50	> 50	> 50
CC(C)(C)/C(O)=C\c1nc2cc(F)c(F)cc2[nH]c1=O	> 100	> 100	> 100	57	> 100	> 100	> 100	> 100	> 100	–
O=C(c1ccco1)N(C(=O)N1CCC(c2ccccc2)CC1)c1ccccc1	64.2	–	> 100	> 100	> 100	> 100	–	–	51.5	60
CSc1ccc(/C=C2\N=C(c3ccccc3)N(c3nc4cc(Cl)c(F)cc4s3)C2=O)cc1	> 100	> 100	–	> 100	> 100	> 100	82.7	98.7	> 100	> 100
C=C1C[C@@H]2O[C@H]3[C@H]4[C@@H](C[C@@H](C)[C@@H](OC(C)=O)[C@H]42)[C@@H](C)CO[C@@]3(C)[C@H](OC(=O)CCCCCCC)CC1=O	31.5	37.2	40.1	31.4	29.8	29.1	–	29.8	28.4	13.1
CCOC(=O)C(NC(=O)c1cccc(Cl)c1)(Nc1cccc(C)c1)C(F)(F)F (configuration not stated)	54.5	> 100	–	99.6	37.2	–	62.8	36.2	30.9	> 100
CCC1(CC)C(=O)N(C(=O)c2cc(OC)c(OC)c(OC)c2)N(C(=O)c2cc(OC)c(OC)c(OC)c2)C1=O	> 50	–	> 50	> 50	> 50	> 50	> 50	> 50	> 50	> 50
COc1cc(/C=N/N=C(\N)NO)c([N+](=O)[O-])cc1OC	–	> 100	99.4	–	> 100	> 100	> 100	> 100	50.9	> 100
CC(=N/NC(=S)N(C)C)/C(=N\NC(=S)N(C)C)c1ccccc1	3.54	–	–	10.6	3.97	4.14	3.74	5.33	3.14	–
CC1(C)N=C(N)N=C(N)N1c1cccc(Cl)c1	> 100	> 100	> 100	> 100	> 100	> 100	> 100	> 100	> 100	–
CCOC(=O)c1c(SCc2cc(=O)[nH]c(=O)[nH]2)n(-c2ccccc2)c(=S)n(-c2ccccc2)c1=O	> 100	–	–	> 100	> 100	> 100	–	> 100	> 100	> 100
O=C1Nc2cc(F)ccc2C1=O	–	–	> 100	–	> 100	> 100	> 100	> 100	> 100	> 100
CCCCN(CCCC)CC(C(C)=O)C(c1ccccc1)c1c(O)c2ccccc2oc1=O (configuration not stated)	–	> 100	> 100	–	> 100	> 100	> 100	> 100	> 100	> 100
O=C(NC(C(F)(F)F)(C(F)(F)F)P(=O)(Cc1ccccc1)Cc1ccccc1)C(C(F)(F)F)C(F)(F)F	95.1	80.6	40.8	> 100	92.7	34.8	–	41.6	29.1	72
CNC(=O)CN(CC(=O)O)C(=O)NC	–	> 100	> 100	–	> 100	> 100	> 100	> 100	> 100	> 100
Cn1c(=O)cc(NNc2ccc(Cl)c(Cl)c2)[nH]c1=O	21.1	> 100	90.7	> 100	21.1	20.3	28.3	31.3	19.3	–
COc1ccc(C2C=C(c3ccc(C)cc3)N(c3ccc(OC)cc3[N+](=O)[O-])C3C(=O)OC(=O)C23)c(OC)c1 (configuration not stated)	–	61	> 100	–	80.9	> 100	> 100	> 100	> 100	56.5
CSc1ncc2c(n1)-c1ccccc1OC2NC1CC1 (configuration not stated)	91.7	> 100	> 100	> 100	> 100	> 100	> 100	–	> 100	96.9
